Experiment [1] has as its system Rattus norvegicus. The experiment is described as follows: Effect on postural hypotension in Sprague-Dawley rat assessed as change in systolic blood pressure at 22 ug/kg, po treated for >30 mins followed by induction of postural hypotension measured immediately after postural change (reference value: 131 +/- 9 mmHg). The note with it: dose 22 µg/kg, 0.5 h. It counts as functional.

Experiment [2] has as its system Rattus norvegicus. Kind of experiment: Effect on postural hypotension in Sprague-Dawley rat assessed as change in systolic blood pressure at 22 ug/kg, po treated for >30 mins followed by induction of postural hypotension measured 3 secs after postural change (reference value: 124 +/- 10 mmHg). The experiment is classed as functional. The note with it: dose 22 µg/kg, time > 30.05 min, 0.5008 h.

Experiment [3] concerns Rattus norvegicus. The experiment is described as follows: Effect on postural hypotension in Sprague-Dawley rat assessed as change in systolic blood pressure at 22 ug/kg, po treated for >30 mins followed by induction of postural hypotension measured 5 secs after postural change (reference value: 126 +/- 12 mmHg). The experiment is classed as functional. The note with it: dose 22 µg/kg, time > 30.08 min, 0.5013 h.

The subject of experiment [4] is Rattus norvegicus. Kind of experiment: Effect on postural hypotension in Sprague-Dawley rat assessed as change in systolic blood pressure at 22 ug/kg, po treated for >30 mins followed by induction of postural hypotension measured 10 secs after postural change (reference value: 127 +/- 12 mmHg). The experiment is classed as functional. The note with it: dose 22 µg/kg, time > 30.17 min, 0.5028 h.

In experiment [5] the test system is Rattus norvegicus. Kind of experiment: Effect on postural hypotension in Sprague-Dawley rat assessed as change in systolic blood pressure at 22 ug/kg, po treated for >30 mins followed by induction of postural hypotension measured 20 secs after postural change (reference value: 129 +/- 11 mmHg). It counts as functional. The note with it: dose 22 µg/kg, time > 30.33 min, 0.5055 h.

Experiment [6] deals with Rattus norvegicus. Kind of experiment: Effect on postural hypotension in Sprague-Dawley rat assessed as change in systolic blood pressure at 22 ug/kg, po treated for >30 mins followed by induction of postural hypotension measured 40 secs after postural change (reference value: 128 +/- 11 mmHg). It counts as functional. The note with it: dose 22 µg/kg, time > 30.67 min, 0.5112 h.

Experiment [7] deals with Rattus norvegicus. The experiment is described as follows: Effect on postural hypotension in Sprague-Dawley rat assessed as change in systolic blood pressure at 22 ug/kg, po treated for >30 mins followed by induction of postural hypotension measured 60 secs after postural change (reference value: 127 +/- 10 mmHg). The experiment is classed as functional. The note with it: dose 22 µg/kg, time > 31 min.

In experiment [8] the target is T1, Alpha-1A adrenergic receptor (Homo sapiens) (UniProt P35348).
T1 sequence (whole entry): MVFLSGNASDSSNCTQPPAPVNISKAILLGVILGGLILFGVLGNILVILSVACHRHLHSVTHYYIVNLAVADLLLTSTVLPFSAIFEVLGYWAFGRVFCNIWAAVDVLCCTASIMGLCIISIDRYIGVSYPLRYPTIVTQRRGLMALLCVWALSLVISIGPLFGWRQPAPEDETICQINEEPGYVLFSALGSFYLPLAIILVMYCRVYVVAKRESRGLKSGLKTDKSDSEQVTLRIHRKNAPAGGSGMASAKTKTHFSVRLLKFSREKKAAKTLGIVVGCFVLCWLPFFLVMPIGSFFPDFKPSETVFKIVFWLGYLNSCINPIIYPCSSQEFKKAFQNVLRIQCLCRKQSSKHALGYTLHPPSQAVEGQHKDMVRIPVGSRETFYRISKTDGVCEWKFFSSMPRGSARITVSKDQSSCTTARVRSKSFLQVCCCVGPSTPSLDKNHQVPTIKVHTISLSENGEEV
Kind of experiment: Displacement of [3H]prazosin from recombinant human alpha 1A adrenoceptor extracted from CHO cell membrane at 1 nM incubated for 60 mins by radioligand binding assay relative to control. It counts as cell membranes.

Experiment [9] addresses T1, Alpha-1A adrenergic receptor (Homo sapiens). The experiment is described as follows: Displacement of [3H]prazosin from recombinant human alpha 1A adrenoceptor extracted from CHO cell membrane at 10 nM incubated for 60 mins by radioligand binding assay relative to control. It counts as cell membranes. The note with it: filed as antagonist. Background: Displacement assays read how much labelled ligand stays bound in the presence of the test substance.

Experiment [10] shares this target. Kind of experiment: Displacement of [3H]prazosin from recombinant human alpha 1A adrenoceptor extracted from CHO cell membrane at 100 nM incubated for 60 mins by radioligand binding assay relative to control. The experiment is classed as cell membranes. The note with it: filed as antagonist.
For experiment [11], the target named is T2, 5-hydroxytryptamine receptor 2A (Homo sapiens, UniProt P28223). Kind of experiment: Displacement of [3H]Ketanserin from recombinant human 5-HT2A receptor extracted from CHO cell membrane at 1 nM incubated for 60 mins by radioligand binding assay relative to control. The experiment is classed as cell membranes.
The target in experiment [12] is T2, 5-hydroxytryptamine receptor 2A. Kind of experiment: Displacement of [3H]Ketanserin from recombinant human 5-HT2A receptor extracted from CHO cell membrane at 10 nM incubated for 60 mins by radioligand binding assay relative to control. The experiment is classed as cell membranes. The note with it: filed as antagonist.
For experiment [13] the target is unchanged. Kind of experiment: Displacement of [3H]Ketanserin from recombinant human 5-HT2A receptor extracted from CHO cell membrane at 100 nM incubated for 60 mins by radioligand binding assay relative to control. The note with it: filed as antagonist. The experiment is classed as cell membranes.
Experiment [14] relates to Rattus norvegicus. The experiment is described as follows: Antihypertensive activity in 2K2C renovascular hypertensive Sprague-Dawley rat model assessed as systolic blood pressure at 20 mg/kg, po measured after 9 weeks (Rvb ~ 202 mmHg). The experiment is classed as functional.
Experiment [15] deals with Rattus norvegicus. The experiment is described as follows: Effect on serum urea level in 2K2C renovascular hypertensive Sprague-Dawley rat model at 20 mg/kg, po measured after 9 weeks by biochemical analysis. The experiment is classed as functional, organism-based.
Experiment [16] deals with Rattus norvegicus. The experiment is described as follows: Effect on serum creatinine level in 2K2C renovascular hypertensive Sprague-Dawley rat model at 20 mg/kg, po measured after 9 weeks by biochemical analysis. It counts as functional, organism-based.

Activity calls are given as the source filed them. No cut-off for these calls is given here.

T2 sequence (P28223 whole entry): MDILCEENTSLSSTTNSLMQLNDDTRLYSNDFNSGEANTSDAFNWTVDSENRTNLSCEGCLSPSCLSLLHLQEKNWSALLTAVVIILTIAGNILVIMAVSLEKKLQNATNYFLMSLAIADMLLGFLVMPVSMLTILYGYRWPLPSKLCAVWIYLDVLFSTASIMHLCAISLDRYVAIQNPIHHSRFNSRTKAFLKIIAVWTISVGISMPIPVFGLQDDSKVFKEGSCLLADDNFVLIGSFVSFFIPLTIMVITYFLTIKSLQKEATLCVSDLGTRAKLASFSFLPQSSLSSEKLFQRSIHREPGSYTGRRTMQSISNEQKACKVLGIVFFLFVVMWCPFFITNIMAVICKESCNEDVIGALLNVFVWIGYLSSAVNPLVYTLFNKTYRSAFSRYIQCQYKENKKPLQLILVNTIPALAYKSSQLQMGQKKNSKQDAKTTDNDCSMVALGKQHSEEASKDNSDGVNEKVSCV

Take `COc1cc2nc(N3CCN(C(=O)c4ccco4)CC3)nc(N)c2cc1OC` [PRAZOSIN]: the Activity in [1] is reported as 95 mmHg; in [2] it was 81 mmHg; in experiment [3], 77 mmHg; in [4] it was 75 mmHg; in [5], 75 mmHg; in experiment [6] it was 74 mmHg. In experiment [7], the Activity turned out to be 74 mmHg.
Consider `Fc1ccc2c(C3CCN(CCCCn4nc5ccccc5n4)CC3)noc2c1`, for which the inhibition in experiment [8] (filed as antagonist) was 83.4%; in experiment [9], 99.9%; in experiment [10], 99.9%; in experiment [11], -5.42%; in experiment [12], 82%; in experiment [13] it was 98.9%.
On to `c1ccc2c(c1)ncn2CCCN1CCN(c2nsc3ccccc23)CC1`, for which the inhibition in [8] is 24.6%; in experiment [9], 74.9%; in [10], 98%; in experiment [11], -1.8%; in [12], 68.8%; in experiment [13], 94%.
With `c1ccc2c(c1)nnn2CCCN1CCN(c2nsc3ccccc23)CC1`, the inhibition in [8] (filed as antagonist) was found to be 44.5%; in [9], 82.6%; in experiment [10], 96.4%; in experiment [11] it was 8.15%; in experiment [12] it was 89.4%; in experiment [13], 98.5%.
Take `c1ccc2nn(CCCCN3CCN(c4nsc5ccccc45)CC3)nc2c1`: the inhibition was 68.8% in experiment [8] (filed as antagonist); 96.2% in experiment [9]; 100% in experiment [10]; -9.49% in experiment [11]; 78.3% in [12]; 101% in experiment [13].
`Fc1ccc2c(C3CCN(CCCCn4nnc5ccccc54)CC3)noc2c1`: the inhibition in [8] (filed as antagonist) was determined as 93.8%; in experiment [9], 100%; in [10], 101%; in [11] it was 39.9%; in experiment [12] it was 89.5%; in experiment [13], 98.2%.
In the case of `CCCCc1nc(Cl)c(CO)n1Cc1ccc(-c2ccccc2-c2nnn[nH]2)cc1` [LOSARTAN], the Activity in experiment [14] turned out to be 176 mmHg. The result in [15] and in experiment [16] was Active.
With `Fc1ccc2c(C3CCN(CCCCn4cnc5ccccc54)CC3)noc2c1`, the inhibition in experiment [8] (filed as antagonist) was 80.7%; in experiment [9], 100%; in experiment [10], 100%; in [11], -3.85%; in experiment [12] it was 81.9%; in [13] it was 96%.

A word on the inhibition: it is the change of the read-out against control, counted positive when it falls.
